# Results taken from US7901716B2, “Active fraction having anti-cancer and anti-metastasis isolated from leaves and stems of ginseng” (MD Bioalpha Co., Ltd., priority 2002, dated 2011).
# Method: In the present experiment, the number of immune cells was measured in co-administration of MB40100, which was expected to reduce the immune inhibition occurring with administration of cyclophosphamide.
# 24 hours and 48 hours after administration of cyclophosphamide (250 mg/kg), MB40100 was abdominally administered in mice at the different dosages (10 mg/kg, 20 mg/kg), respectively. After 7 days, the mice were killed to separate bone marrow cells and splenocytes, and then the number of these cells was counted pursuant to the tryphan blue exclusion method.
# Peripheral blood was rapidly gathered from the eyeball distal vein using a heparin-treated capillary glass tube and collected in a K3-EDTA-treated blood-gathering tube, then examined it with an automatic globule analyzer.
structure (smiles),measurement,setting,value
O=P1(N(CCCl)CCCl)NCCCO1 (stereo not drawn) [cyclophosphamide],reduction of number of WBC compared with normal mouse,cyclophosphamide 250 mg/kg alone,about 30%
same,number of WBC in blood,"cyclophosphamide 250 mg/kg alone, normal mouse 7800",5300
same,number of splenocytes less than normal mouse,cyclophosphamide alone,about 72.8%
same,decrease of bone marrow cell density versus normal mouse,"cyclophosphamide alone, 7 days after",29.2%
same,bone marrow cell density,"cyclophosphamide alone, 7 days after, normal mouse 41.1×10^6",29.6×10^6 cells/ml
same,number of thrombocytes less than normal mouse,"cyclophosphamide alone, peripheral blood",about 56%
